One may read the pIC50 as the negative decadic logarithm of the IC50, by convention in mol/L.

pIC50: −log10 of the molar value.

Test [1] relates to KB. The test can be described thus: Cytotoxicity against human KB cells assessed as growth inhibition at 0.5 uM. Particulars: read-out: GI. Type of test: functional.
The subject of test [2] is KB. The test can be described thus: Cytotoxicity against human KB cells assessed as growth inhibition. It counts as functional, cell-based.
Test [3] has as its system Plasmodium falciparum. The test can be described thus: Antiplasmodial activity against chloroquine-sensitive Plasmodium falciparum D10. Type of test: functional, organism-based.
For test [4], the system named is Plasmodium falciparum. Briefly: Antiplasmodial activity against chloroquine-resistant Plasmodium falciparum K1. Type of test: functional, organism-based.
In test [5] the test system is Plasmodium falciparum. The test can be described thus: Antiplasmodial activity against chloroquine-resistant Plasmodium falciparum W2. It counts as functional, organism-based.
For test [6], the system named is KB. Briefly: Cytotoxicity against human KB cells assessed as growth inhibition at 10 uM. It counts as functional. Particulars: read-out: GI.
Test [7] deals with KB. Briefly: Cytotoxicity against human KB cells assessed as growth inhibition at 100 uM. It counts as functional. Particulars: read-out: GI.
The test system of test [8] is Plasmodium falciparum. The test can be described thus: Antiplasmodial activity against chloroquine-sensitive Plasmodium falciparum 3D7. Type of test: functional, organism-based.

In the case of `COc1cc([C@@H]2c3cc4c(cc3[C@H](O)[C@H]3COC(=O)[C@H]23)OCO4)cc(OC)c1OC` [PODOFILOX], the inhibition of growth at 0.5 µM in the test on KB [1] is 81.5%. In addition, the pIC50 in the test with KB [2] is 9.30.

Turning to `[N-]=[N+]=N[C@@H]1C(=O)N(C2CCCCC2)[C@@H]1/C=C/c1ccccc1`, the pIC50 with Plasmodium falciparum [3] was 5.63.

For the compound `O=C1[C@@H](n2cc(-c3ccccc3)nn2)[C@@H](/C=C/c2ccccc2)N1c1ccccc1`, the pIC50 with Plasmodium falciparum [4] was below 4.29; with KB [2], 4.04; in the test on Plasmodium falciparum [5] it was 4.93; with Plasmodium falciparum [8], below 4.29. In the test with KB [6], the inhibition of growth at 10 µM came to 10%. In addition, the inhibition of growth at 100 µM in the test on KB [7] was 58.3%.

Compound `[N-]=[N+]=N[C@@H]1C(=O)N(c2ccccc2)[C@@H]1/C=C/c1ccccc1` showed a pIC50 in the test with Plasmodium falciparum [3] of 4.99.

For the compound `O=C1[C@@H](n2cc(-c3ccccc3)nn2)[C@@H](/C=C/c2ccccc2)N1C1CCCCC1`, the pIC50 with Plasmodium falciparum [4] is 5.92; in the test with KB [2] it was 5.08; in the test on Plasmodium falciparum [5], 6.00; in the test on Plasmodium falciparum [8] it was 5.95. The inhibition of growth at 10 µM in the test with KB [6] was 76.8%. Besides, in the test on KB [7], the inhibition of growth at 100 µM is 99.7%.

In the case of `O=C1[C@@H](n2cc(-c3ccccc3)nn2)[C@@H](/C=C/c2ccccc2)N1c1ccc(Cl)cc1`, the pIC50 was 5.15 in the test on Plasmodium falciparum [4], 4.07 in the test with KB [2], 6.00 in the test with Plasmodium falciparum [5] and 5.10 with Plasmodium falciparum [8]. In addition, the inhibition of growth at 10 µM in the test on KB [6] is 16.8%. The inhibition of growth at 100 µM with KB [7] is 79.3%.

For `CCN(CC)CCCC(C)Nc1ccnc2cc(Cl)ccc12` (stereo unspecified) [CHLOROQUINE], the pIC50 in the test on KB [2] was 4.44. In the test on KB [6], the inhibition of growth at 10 µM stood at 31.4%. The inhibition of growth at 100 µM with KB [7] worked out at 97%.

Regarding `[N-]=[N+]=N[C@@H]1C(=O)N(c2ccc(Cl)cc2)[C@@H]1/C=C/c1ccccc1`, the negative-log IC50 (pIC50) in the test on Plasmodium falciparum [3] was 5.35.

The compound `N[C@@H]1C(=O)N(C2CCCCC2)[C@@H]1/C=C/c1ccccc1` gave a negative-log IC50 (pIC50) in the test on Plasmodium falciparum [3] of 4.73.

For `Cc1ccc(N2C(=O)[C@@H](N)[C@H]2/C=C/c2ccccc2)cc1`, the pIC50 in the test with Plasmodium falciparum [3] was 4.22.

`N[C@@H]1C(=O)N(c2ccccc2)[C@@H]1/C=C/c1ccccc1` had a pIC50 in the test on Plasmodium falciparum [3] of 4.53.

For `COC(=O)c1nnn([C@@H]2C(=O)N(C3CCCCC3)[C@@H]2/C=C/c2ccccc2)c1C(=O)OC`, the negative logarithm of the IC50 (pIC50) was below 4.34 in the test with Plasmodium falciparum [4], below 3.64 in the test on KB [2], below 4.70 in the test with Plasmodium falciparum [5] and below 4.34 in the test with Plasmodium falciparum [8]. For the same compound, the inhibition of growth at 10 µM with KB [6] was -7.7%. Further, the inhibition of growth at 100 µM in the test on KB [7] is 8.07%.

In the test with Plasmodium falciparum [5], `COC(=O)c1nnn([C@@H]2C(=O)N(c3ccc(C)cc3)[C@@H]2/C=C/c2ccccc2)c1C(=O)OC` showed a negative-log IC50 (pIC50) below 4.70.

Regarding `Cc1ccc(N2C(=O)[C@@H](n3cc(-c4ccccc4)nn3)[C@H]2/C=C/c2ccccc2)cc1`, the pIC50 with Plasmodium falciparum [4] is 5.47; in the test on KB [2] it was 4.05; in the test on Plasmodium falciparum [5], 6.00; in the test on Plasmodium falciparum [8], 4.92. The inhibition of growth at 10 µM with KB [6] was 14.7%. Moreover, the inhibition of growth at 100 µM in the test on KB [7] turned out to be 80.8%.

The compound `[N-]=[N+]=N[C@@H]1C(=O)N(Cc2ccccc2)[C@@H]1/C=C/c1ccccc1` showed a pIC50 with Plasmodium falciparum [3] of 5.33.

For the compound `Cc1ccc(N2C(=O)[C@@H](N=[N+]=[N-])[C@H]2/C=C/c2ccccc2)cc1`, the pIC50 in the test with Plasmodium falciparum [3] was 5.23.

Consider `COC(=O)c1nnn([C@@H]2C(=O)N(c3ccc(Cl)cc3)[C@@H]2/C=C/c2ccccc2)c1C(=O)OC`, for which the pIC50 in the test on Plasmodium falciparum [4] is 4.91; in the test on KB [2], 3.84; with Plasmodium falciparum [5], below 4.70; in the test with Plasmodium falciparum [8], 4.60. The inhibition of growth at 10 µM with KB [6] was found to be 19.5%. In the test on KB [7], the inhibition of growth at 100 µM stood at 56.5%.

In the case of `N[C@@H]1C(=O)N(c2ccc(Cl)cc2)[C@@H]1/C=C/c1ccccc1`, the negative logarithm of the IC50 (pIC50) in the test with Plasmodium falciparum [3] is 4.42.

(Values after ChEMBL document CHEMBL1806406, “Antiplasmodial and cytotoxicity evaluation of 3-functionalized 2-azetidinone derivatives” (Bioorg Med Chem Lett, 2011).)
